The source made the active and inactive calls. The calls are words filed in the database; no cut-off is given here.
Key:
[1] = Anti-myelofibrosis activity against mouse BAF3(transformed) cells harboring with JAK2 V617F mutant allografted in NOD/SCID mouse assessed as reduction in liver weight at 60 mg/kg, po qd for 20 days measured on day 25 relative to control; assay type: functional
[2] = Anti-myelofibrosis activity against mouse BAF3(transformed) cells harboring with JAK2 V617F mutant allografted in NOD/SCID mouse assessed as reduction in spleen weight at 60 mg/kg, po qd for 20 days measured on day 25 relative to control; assay type: functional
[3] = target: T1, Tyrosine-protein kinase JAK1 (Homo sapiens, UniProt P23458); assay: Inhibition of human JAK1 (866 to end residues) assessed as residual activity at 100 nM using GEEPLYWSFPAKK as substrate after 40 mins in presence of [gamma33P]-ATP by scintillation counting based radiometric assay relative to control
[4] = target: Tyrosine-protein kinase JAK2 (Homo sapiens, UniProt O60674); assay: Inhibition of human JAK2 (808 to end residues) assessed as residual activity at 100 nM using KTFCGTPEYLAP as substrate after 40 mins in presence of [gamma33P]-ATP by scintillation counting based radiometric assay relative to control
[5] = target: T1, Tyrosine-protein kinase JAK1; assay: Inhibition of human JAK1 (866 to end residues) GEEPLYWSFPAKK as substrate after 40 mins in presence of [gamma33P]-ATP by scintillation counting based radiometric assay
[6] = Cmax in Sprague-Dawley rat at 5 mg/kg, po measured up to 24 hrs by LC/MS/MS analysis; assay type: ADME, organism-based; parameters: dose 5 mg/kg, route oral; details: in vivo, 24 h
[7] = AUC (0 to t) in Sprague-Dawley rat at 5 mg/kg, po measured up to 24 hrs by LC/MS/MS analysis; assay type: ADME, organism-based; parameters: dose 5 mg/kg, time < 24 hr, route oral; details: in vivo, 24 h
CDK6/cyclin D3 = CDK6/cyclin D3 (Homo sapiens, UniProt Q00534); assay: Inhibition of recombinant full length human CDK6/CyclinD3 using histone H1 as substrate incubated for 30 mins in presence of [gamma33P]-ATP by scintillation counting based radiometry assay; assay type: protein-complex assay
[8] = target: Vascular endothelial growth factor receptor 1 (Homo sapiens, UniProt P17948); assay: Inhibition of recombinant human FLT1 (783 to end residues) using KKKSPGEYVNIEF as substrate incubated for 40 mins in presence of [gamma33P]-ATP by scintillation counting based radiometry assay
[9] = target: Vascular endothelial growth factor receptor 3 (Homo sapiens, UniProt P35916); assay: Inhibition of recombinant human FLT4 (800 to 1297 residues) using poly(Glu:Tyr) as substrate incubated for 30 mins in presence of [gamma33P]-ATP by scintillation counting based radiometry assay
[10] = target: Tyrosine-protein kinase Lck (Homo sapiens, UniProt P06239); assay: Inhibition of recombinant human full length human LCK using KVEKIGEGTYGVV as substrate incubated for 40 mins in presence of [gamma33P]-ATP by scintillation counting based radiometry assay
L02 = assay: Cytotoxicity against human LO2 cells assessed as cell viability after 72 hrs by MTT assay; assay type: cell-based; details: l02, 72 h
HUVEC = assay: Cytotoxicity against HUVEC assessed as cell viability after 72 hrs by MTT assay; assay type: cell-based; details: human
MDA-MB-231 = assay: Antiproliferative activity against human MDA-MB-231 cells assessed as reduction in cell growth after 72 hrs by MTT assay; assay type: functional, cell-based
HCT-116 = assay: Antiproliferative activity against human HCT116 cells assessed as reduction in cell growth after 72 hrs by MTT assay; assay type: functional, cell-based
Cytochrome P450 1A2 = Cytochrome P450 1A2 (Homo sapiens, UniProt P05177); assay: Inhibition of CYP1A2 (unknown origin); assay type: ADME
Cytochrome P450 2E1 = Cytochrome P450 2E1 (Homo sapiens, UniProt P05181); assay: Inhibition of CYP2E1 (unknown origin); assay type: ADME
[11] = Half life in human liver microsomes; assay type: ADME, Microsome
[12] = Half life in dog liver microsomes; assay type: ADME, Canis lupus familiaris, Microsome
[13] = Half life in monkey liver microsomes; assay type: ADME, Macaca mulatta, Microsome; details: rhesus monkey
[14] = Intrinsic clearance in human liver microsomes; assay type: ADME, Microsome
[15] = Intrinsic clearance in rat liver microsomes; assay type: ADME, Microsome
[16] = Intrinsic clearance in monkey liver microsomes; assay type: ADME, Macaca mulatta, Microsome; details: rhesus monkey
Homo sapiens = species on record: Homo sapiens; assay: Inhibition of JAK2 V617F mutant/FLT3 in human SET2 cells assessed as reduction in FLT3 phosphorylation after 2 hrs by Western blot analysis; assay type: cell-based
MV4-11 [17] = assay: Induction of cell cycle arrest in human MV4-11 cells assessed as accumulation at S phase at 0.005 uM after 24 hrs by propidium iodide staining based flow cytometry analysis (reference value: 30.11%); assay type: functional
MV4-11 [18] = assay: Induction of cell cycle arrest in human MV4-11 cells assessed as accumulation at G2/M phase at 0.005 uM after 24 hrs by propidium iodide staining based flow cytometry analysis (reference value: 15.4%); assay type: functional
MV4-11 [19] = assay: Induction of cell cycle arrest in human MV4-11 cells assessed as accumulation at G0/G1 phase at 0.05 uM after 24 hrs by propidium iodide staining based flow cytometry analysis (reference value: 54.49%); assay type: functional
MV4-11 [20] = assay: Induction of cell cycle arrest in human MV4-11 cells assessed as accumulation at S phase at 0.05 uM after 24 hrs by propidium iodide staining based flow cytometry analysis (reference value: 30.11%); assay type: functional
MV4-11 [21] = assay: Induction of cell cycle arrest in human MV4-11 cells assessed as accumulation at S phase at 0.1 uM after 24 hrs by propidium iodide staining based flow cytometry analysis (reference value: 30.11%); assay type: functional
MV4-11 [22] = assay: Induction of apoptosis in human MV4-11 cells assessed as necrotic cells at 0.4 uM after 24 hrs by Annexin V FITC/PI staining based flow cytometry analysis (reference value: 0.18%); assay type: functional
MV4-11 [23] = assay: Induction of apoptosis in human MV4-11 cells assessed as viable cells at 0.8 uM after 24 hrs by Annexin V FITC/PI staining based flow cytometry analysis (reference value: 96.3%); assay type: functional; details: MV4-11, 24 h, read-out: Activity
MV4-11 [24] = assay: Induction of apoptosis in human MV4-11 cells assessed as late apoptotic cells at 1.6 uM after 24 hrs by Annexin V FITC/PI staining based flow cytometry analysis (reference value: 1.38%); assay type: functional
MV4-11 [25] = assay: Induction of apoptosis in human MV4-11 cells assessed as necrotic cells at 1.6 uM after 24 hrs by Annexin V FITC/PI staining based flow cytometry analysis (reference value: 0.18%); assay type: functional
MV4-11 [26] = assay: Induction of apoptosis in human MV4-11 cells after 24 hrs by Annexin V FITC/PI staining based flow cytometry analysis; assay type: functional, cell-based
MV4-11 [27] = assay: Antitumor activity against FLT3-ITD-positive human MV4-11 cells xenografted in NOD/SCID mouse assessed as tumor growth inhibition at 30 mg/kg, po qd for 14 days measured every 2 days for 14 days by caliper method relative to control; assay type: functional; details: MV4-11, po, read-out: TGI
MV4-11 [28] = assay: Antitumor activity against FLT3-ITD positive human MV4-11 cells xenografted in NOD/SCID mouse assessed as tumor growth inhibition at 60 mg/kg, po qd for 14 days measured every 2 days for 14 days by caliper method relative to control; assay type: functional; details: MV4-11, po, read-out: TGI

T1 sequence (P23458 whole entry): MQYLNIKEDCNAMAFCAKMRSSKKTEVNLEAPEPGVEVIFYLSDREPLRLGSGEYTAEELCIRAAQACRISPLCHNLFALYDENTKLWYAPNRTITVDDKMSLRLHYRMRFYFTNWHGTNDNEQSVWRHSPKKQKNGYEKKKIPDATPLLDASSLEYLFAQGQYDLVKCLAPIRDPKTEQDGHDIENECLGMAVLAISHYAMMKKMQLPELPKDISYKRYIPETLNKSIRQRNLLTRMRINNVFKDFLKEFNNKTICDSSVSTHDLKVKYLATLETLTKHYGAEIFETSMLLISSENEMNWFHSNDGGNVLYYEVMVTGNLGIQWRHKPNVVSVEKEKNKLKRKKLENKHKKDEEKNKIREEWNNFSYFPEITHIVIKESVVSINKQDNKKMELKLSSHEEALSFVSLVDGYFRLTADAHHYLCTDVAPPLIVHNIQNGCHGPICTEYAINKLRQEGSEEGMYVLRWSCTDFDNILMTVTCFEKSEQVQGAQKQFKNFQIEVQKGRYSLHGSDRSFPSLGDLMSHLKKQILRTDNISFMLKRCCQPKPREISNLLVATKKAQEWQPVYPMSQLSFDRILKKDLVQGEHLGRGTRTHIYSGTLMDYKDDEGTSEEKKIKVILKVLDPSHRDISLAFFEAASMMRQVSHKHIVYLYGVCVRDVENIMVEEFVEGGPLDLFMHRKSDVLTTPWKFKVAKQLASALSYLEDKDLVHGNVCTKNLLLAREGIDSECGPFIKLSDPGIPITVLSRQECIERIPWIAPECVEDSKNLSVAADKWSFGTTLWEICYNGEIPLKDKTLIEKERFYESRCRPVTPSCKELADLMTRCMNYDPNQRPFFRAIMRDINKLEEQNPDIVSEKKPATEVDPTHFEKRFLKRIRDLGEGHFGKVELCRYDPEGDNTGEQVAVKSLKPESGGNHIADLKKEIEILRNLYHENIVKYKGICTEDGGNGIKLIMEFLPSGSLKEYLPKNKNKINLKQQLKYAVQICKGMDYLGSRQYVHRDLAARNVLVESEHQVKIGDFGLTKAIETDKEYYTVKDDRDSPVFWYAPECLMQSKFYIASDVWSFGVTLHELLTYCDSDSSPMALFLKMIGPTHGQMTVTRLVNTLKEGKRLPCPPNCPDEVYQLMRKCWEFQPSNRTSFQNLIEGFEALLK
Cytochrome P450 1A2, sequence (P05177 whole entry): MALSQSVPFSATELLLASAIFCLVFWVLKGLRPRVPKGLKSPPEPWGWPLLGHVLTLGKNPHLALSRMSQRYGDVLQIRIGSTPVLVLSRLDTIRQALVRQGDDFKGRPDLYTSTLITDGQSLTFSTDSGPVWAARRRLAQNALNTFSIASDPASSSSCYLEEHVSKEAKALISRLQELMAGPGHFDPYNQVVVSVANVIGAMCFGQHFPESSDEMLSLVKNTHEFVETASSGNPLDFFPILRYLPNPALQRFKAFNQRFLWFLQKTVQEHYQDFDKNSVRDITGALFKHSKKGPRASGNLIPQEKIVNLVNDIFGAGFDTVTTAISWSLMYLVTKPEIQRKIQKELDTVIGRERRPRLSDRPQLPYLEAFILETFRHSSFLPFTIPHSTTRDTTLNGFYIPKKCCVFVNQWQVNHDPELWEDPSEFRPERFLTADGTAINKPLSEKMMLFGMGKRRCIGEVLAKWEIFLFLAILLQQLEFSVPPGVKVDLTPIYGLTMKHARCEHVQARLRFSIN
Vascular endothelial growth factor receptor 3, sequence (P35916 whole entry, the tested form may be a part): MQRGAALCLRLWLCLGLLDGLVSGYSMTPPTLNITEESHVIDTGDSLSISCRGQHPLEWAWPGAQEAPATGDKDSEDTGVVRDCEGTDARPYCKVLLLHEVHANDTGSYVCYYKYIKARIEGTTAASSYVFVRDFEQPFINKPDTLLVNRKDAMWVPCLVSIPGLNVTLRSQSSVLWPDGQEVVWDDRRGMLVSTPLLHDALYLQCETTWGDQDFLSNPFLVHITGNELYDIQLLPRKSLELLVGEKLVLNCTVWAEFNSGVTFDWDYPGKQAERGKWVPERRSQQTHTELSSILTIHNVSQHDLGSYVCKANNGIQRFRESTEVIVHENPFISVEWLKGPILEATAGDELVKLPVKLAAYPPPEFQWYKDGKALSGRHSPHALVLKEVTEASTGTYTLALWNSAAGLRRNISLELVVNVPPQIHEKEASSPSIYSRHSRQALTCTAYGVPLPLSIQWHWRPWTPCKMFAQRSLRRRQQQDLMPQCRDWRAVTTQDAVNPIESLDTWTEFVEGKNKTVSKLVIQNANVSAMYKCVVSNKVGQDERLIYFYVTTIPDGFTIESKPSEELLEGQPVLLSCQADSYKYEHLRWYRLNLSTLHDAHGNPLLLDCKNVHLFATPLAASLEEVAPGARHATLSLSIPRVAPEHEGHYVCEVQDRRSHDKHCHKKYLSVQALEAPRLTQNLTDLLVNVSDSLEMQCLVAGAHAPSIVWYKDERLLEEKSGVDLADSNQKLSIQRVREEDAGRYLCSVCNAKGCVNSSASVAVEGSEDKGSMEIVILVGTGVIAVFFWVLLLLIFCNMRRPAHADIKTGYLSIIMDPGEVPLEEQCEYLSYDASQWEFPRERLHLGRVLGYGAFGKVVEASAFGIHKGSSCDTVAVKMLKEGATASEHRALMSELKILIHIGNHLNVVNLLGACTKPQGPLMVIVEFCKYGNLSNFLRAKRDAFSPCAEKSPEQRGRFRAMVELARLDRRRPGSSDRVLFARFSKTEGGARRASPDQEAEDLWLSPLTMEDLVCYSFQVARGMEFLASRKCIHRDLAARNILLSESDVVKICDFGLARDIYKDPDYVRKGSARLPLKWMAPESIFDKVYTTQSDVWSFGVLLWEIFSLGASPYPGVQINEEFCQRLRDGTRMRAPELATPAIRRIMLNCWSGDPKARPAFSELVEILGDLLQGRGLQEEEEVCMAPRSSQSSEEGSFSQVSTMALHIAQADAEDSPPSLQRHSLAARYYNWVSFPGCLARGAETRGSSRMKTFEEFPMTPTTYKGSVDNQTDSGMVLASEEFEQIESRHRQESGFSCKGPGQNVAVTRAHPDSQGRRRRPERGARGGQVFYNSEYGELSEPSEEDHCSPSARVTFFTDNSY
Cytochrome P450 2E1, sequence (P05181 whole entry): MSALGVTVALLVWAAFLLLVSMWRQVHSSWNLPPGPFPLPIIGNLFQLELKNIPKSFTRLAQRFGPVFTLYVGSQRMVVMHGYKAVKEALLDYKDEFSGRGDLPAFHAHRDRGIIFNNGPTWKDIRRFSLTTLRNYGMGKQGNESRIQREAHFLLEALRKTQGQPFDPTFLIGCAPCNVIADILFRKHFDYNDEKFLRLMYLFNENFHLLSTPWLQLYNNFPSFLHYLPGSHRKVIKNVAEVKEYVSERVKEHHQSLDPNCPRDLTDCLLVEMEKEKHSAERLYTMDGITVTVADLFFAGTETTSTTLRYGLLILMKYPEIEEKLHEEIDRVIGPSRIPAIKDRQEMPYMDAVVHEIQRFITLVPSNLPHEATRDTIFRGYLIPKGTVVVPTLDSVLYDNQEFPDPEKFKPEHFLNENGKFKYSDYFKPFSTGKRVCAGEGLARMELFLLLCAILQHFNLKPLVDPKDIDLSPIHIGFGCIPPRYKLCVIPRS
Tyrosine-protein kinase JAK2, sequence (O60674 whole entry): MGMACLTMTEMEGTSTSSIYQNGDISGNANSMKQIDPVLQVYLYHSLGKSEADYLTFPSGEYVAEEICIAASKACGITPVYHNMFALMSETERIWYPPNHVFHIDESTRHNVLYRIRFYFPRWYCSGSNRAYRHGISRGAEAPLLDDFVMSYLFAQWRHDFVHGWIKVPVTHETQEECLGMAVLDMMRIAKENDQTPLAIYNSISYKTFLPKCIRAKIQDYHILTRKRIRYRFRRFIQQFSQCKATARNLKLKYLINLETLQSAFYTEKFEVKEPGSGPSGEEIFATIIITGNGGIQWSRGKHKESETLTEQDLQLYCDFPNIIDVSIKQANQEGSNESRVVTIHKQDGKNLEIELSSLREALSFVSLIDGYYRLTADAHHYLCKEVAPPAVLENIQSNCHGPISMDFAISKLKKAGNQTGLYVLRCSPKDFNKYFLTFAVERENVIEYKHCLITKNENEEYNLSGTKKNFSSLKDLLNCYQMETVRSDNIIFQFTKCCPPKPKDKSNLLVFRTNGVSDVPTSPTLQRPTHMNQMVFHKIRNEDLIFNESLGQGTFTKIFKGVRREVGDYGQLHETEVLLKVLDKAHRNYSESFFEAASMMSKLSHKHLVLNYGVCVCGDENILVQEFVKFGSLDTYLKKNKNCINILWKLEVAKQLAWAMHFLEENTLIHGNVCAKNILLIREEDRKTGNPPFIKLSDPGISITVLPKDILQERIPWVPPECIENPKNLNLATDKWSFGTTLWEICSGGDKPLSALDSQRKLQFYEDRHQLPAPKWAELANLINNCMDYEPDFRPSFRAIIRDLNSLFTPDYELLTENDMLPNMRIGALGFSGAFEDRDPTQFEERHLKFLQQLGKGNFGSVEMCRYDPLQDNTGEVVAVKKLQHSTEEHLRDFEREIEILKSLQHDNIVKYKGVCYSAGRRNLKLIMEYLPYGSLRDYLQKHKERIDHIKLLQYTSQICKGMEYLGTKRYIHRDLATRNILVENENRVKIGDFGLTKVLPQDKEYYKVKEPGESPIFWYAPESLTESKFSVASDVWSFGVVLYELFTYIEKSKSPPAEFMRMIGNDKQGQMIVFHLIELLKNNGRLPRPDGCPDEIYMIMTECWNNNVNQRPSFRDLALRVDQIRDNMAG

Cc1cnc(Nc2ccc(N3CCC(N(C)CCO)CC3)c(F)c2)nc1-c1cnn(C(C)C)c1
inhibition in vivo at 60 mg/kg [1]: 94.3% | inhibition in vivo at 60 mg/kg [2]: 59.5% | Activity [3]: 25% | Activity [4]: 0% | IC50 [5]: 26 nM | Cmax [6]: 102 ng/mL | AUCt [7]: 2552 ng·h/mL | IC50 (CDK6/cyclin D3): 66 nM | IC50 [8]: 22 nM | IC50 [9]: 8 nM | IC50 [10]: 27 nM | Activity (L02): Non-Toxic | Activity (HUVEC): Non-Toxic | Activity (MDA-MB-231): Active | Activity (HCT-116): Active | IC50 (Cytochrome P450 1A2): 64400 nM | IC50 (Cytochrome P450 2E1): > 100000 nM | half-life [11]: 4.81 h | half-life [12]: 3.12 h | half-life [13]: 23.1 h | CLH [14]: 2.4 µL/min/mg | CLH [15]: 0.9 µL/min/mg | CLH [16]: 0.5 µL/min/mg | inhibition (Homo sapiens): Dose-dependent effect | Activity (MV4-11 [17]): 28.22% | Activity (MV4-11 [18]): 15.4% | Activity (MV4-11 [19]): 81.64% | Activity (MV4-11 [20]): 12.84% | Activity (MV4-11 [21]): 10.26% | Activity (MV4-11 [22]): 1.04% | viability at 0.8 µM (MV4-11 [23]): 46.4% | Activity (MV4-11 [24]): 40.9% | Activity (MV4-11 [25]): 0.68% | Activity (MV4-11 [26]): Dose-dependent effect | inhibition in vivo at 30 mg/kg (MV4-11 [27]): 58% | inhibition in vivo at 60 mg/kg (MV4-11 [28]): 93%

Source: ChEMBL document CHEMBL4321837, “Discovery of Potent and Orally Effective Dual Janus Kinase 2/FLT3 Inhibitors for the Treatment of Acute Myelogenous Leukemia and Myeloproliferative Neoplasms” (J Med Chem, 2019)
